Data published in PMC7463712, “Cholesterol as an Endogenous Ligand of ERRα Promotes ERRα-Mediated Cellular Proliferation and Metabolic Target Gene Expression in Breast Cancer Cells” (Cells, 2020).

Biological target: T1, estrogen-related receptor alpha (ERRα; NR3B1) (Homo sapiens, UniProt P11474)
T1 construct: gene ESRRA
T1 sequence (P11474 193-423 limits assumed): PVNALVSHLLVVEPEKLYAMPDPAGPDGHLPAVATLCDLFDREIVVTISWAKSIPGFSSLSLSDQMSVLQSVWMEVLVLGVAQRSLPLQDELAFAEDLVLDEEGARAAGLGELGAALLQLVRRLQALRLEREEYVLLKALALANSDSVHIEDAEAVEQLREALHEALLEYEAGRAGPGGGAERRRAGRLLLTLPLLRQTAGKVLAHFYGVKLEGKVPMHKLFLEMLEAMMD
Assay: tryptophan fluorescence quenching; GST pull-down with LC-MS/MS
Type: binding

CC(C)CCC[C@@H](C)[C@H]1CC[C@H]2[C@@H]3CC=C4C[C@@H](O)CC[C@]4(C)[C@H]3CC[C@]12C [cholesterol]
Kd: 213 nM
